For one series, the target named is T1, Recombinant human SPSB2 (Homo sapiens, UniProt Q99619).
T1 construct: purchased Abcam ab134592
T1 sequence (Q99619 1-263): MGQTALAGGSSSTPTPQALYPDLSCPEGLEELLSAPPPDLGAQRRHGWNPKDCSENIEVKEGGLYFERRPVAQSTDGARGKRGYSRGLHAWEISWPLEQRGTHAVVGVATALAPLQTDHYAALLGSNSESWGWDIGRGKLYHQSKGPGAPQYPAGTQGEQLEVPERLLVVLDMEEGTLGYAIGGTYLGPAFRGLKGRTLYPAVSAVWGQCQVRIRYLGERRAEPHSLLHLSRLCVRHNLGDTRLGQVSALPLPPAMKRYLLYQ
Nature of the series: Surface plasmon resonance (SPR) binding to immobilized hSPSB2. The note with it: for Kd: hSPSB2, mean ± SEM of three independent experiments; for fold improved binding affinity compared to disulfide-bridged peptide 24: hSPSB2, versus 24; for fold loss of binding for the minor diastereomer: SPR KD, hSPSB2, minor versus major diastereomer. On the procedure: Example sensorgrams for selected PepNats D1−D4, D7, D8, D10, D12 and D18 interacting with immobilized hSPSB2 using SPR (red). Each PepNat was injected at 0.020 µM, 0.078 µM, 0.313 µM, 1.25 µM and 5 µM concentration in quick succession followed by a longer dissociation time. A binding kinetic model was fitted to each experimental trace (black). All experiments were conducted in triplicates. […]
to the elution profile of the crude product . The relevant fractions containing the desired product were collected, analyzed by RP-HPLC-MS and accordingly pooled and lyophilized.
HRMS were obtained on a Thermo Scientific LTQ Fleet Orbitrap mass spectrometer coupled to an Accela HPLC-System (HPLC column: Hypersyl GOLD, 50 mm x 1 mm, particle size 1.9 μm) equipped with an electron spray ionization source (ESI). The mass detection was recorded in the range of […]
2) B) Biochemical Assays Materials and Methods
Surface Plasmon Resonance (SPR)
All SPR experiments were conducted on a Biacore T200, S200 or 8K instrument (GE Healthcare) at 20 °C using HBS-P+ as running buffer (GE Healthcare). A CM5 sensor chip (GE Healthcare) was conditioned three times at 60 s using 50 mM NaOH, 1 M NaCl prior to standard NHS/EDC activation (e.g. amine coupling in the Biacore instruction manual) of the sensor surface for 420 s.
Recombinant human SPSB2 (product ID: ab134592, Abcam, Cambridge, UK) was diluted to 200 nM using 10 mM Sodium acetate pH 5. 5 and injected over the activated surface for 300 s. This surface and a surface subjected to only NHS/EDC activation were deactivated using 100 mM Tris -HCl, pH 8.0. The empty surface was used as a reference surface.
All PepNat and peptide reference interac tion experiments were conducted by diluting 10 mM DMSO stocks of PepNats and peptide references using digital dispensing (Tecan) to 10 µM, 2.5 µM, 625 nM, 156 nM and 40 nM or 1 µM, 250 nM, 63 nM, 16 nM and 4 nM. All concentrations were serially injected ov er both the SPSB2 containing - and empty surfaces using single -cycle kinetics (GE Healthcare). The resulting sensorgrams were reference - and blank subtracted prior to fitting of the data using a binding kinetic model (Biacore evaluation software).
DNA constructs, cell culturing, transfections and generation of stable cell lines DNA constructs and cell lines were employed as previously described by Durek et al.7 “cDNAs encoding human MC1 (Genbank accession number NM_002386), MC3 (NM_019888), and MC4 (NM_005912) and MC5 (NM_005913) were cloned into the pcDNA4/TO vector (ThermoFisher). In the constructs, a consensus Kozak sequence (GCCACC) was incorporated immediately before the start ATG. DNA was amplified, isolated and sequenced using standard techniques.
T-Rex™-293 cells (ThermoFisher) were cultured in DMEM medium, supplemented with 10% foetal bovine serum and 5 µg/ml blasticidin at 37°C in a humidified atmosphere with 10% CO2.
Lipofectamine 2000 (ThermoFisher) was used for transfections according to the manufacturer’s recommendations. Resistant polyclonal populations were generated by selection with Zeocin (0.3 mg/ml, ThermoFisher) for about two weeks after transfection. Individual clones were iso lated using flow cytometry, subsequently expanded, tested for responsiveness to [Nle 4, DPhe7]-α-Melanocyte Stimulating Hormone (NDP-α-MSH) and cryopreserved.” To induce receptor

For series [1] the following is noted: the molecule shown is the open-chain precursor, amine bond, 37-membered ring, then NaBH3CN, DMF, resin, 25.0 °C.
For series [2] the following is noted: the molecule shown is the open-chain precursor, other bond, 37-membered ring, CH(OMe)3/Et3N, DMF, THF, resin, 25.0 °C, with chain assembly.

Like-named read-outs stand apart in the source and are kept apart here.

`CC[C@H](C)[C@@H]1NC(=O)[C@H](CC(=O)O)NC(=O)[C@H](Cc2ccccc2)N(C)C(=O)[C@H]2N[C@@H](c3ccc(cc3)C(=O)NCCCC[C@@H](C(=O)NCC(N)=O)NC(=O)[C@H](CC(N)=O)NC(=O)[C@H](CC(N)=O)NC(=O)[C@H](CC(N)=O)NC1=O)[C@@H](C(=O)OC)[C@H]2C(=O)OC` [D4-minor, [IV-FDINNNK ]G]: the “binding to SPSB2 (in words)” value on Recombinant human SPSB2 (SPR, hSPSB2) is “did not bind”. The dissociation constant Kd at Recombinant human SPSB2 (SPR) was greater than 10000 nM.
For the molecule `CC[C@H](C)[C@@H]1NC(=O)[C@H](CC(=O)O)NC(=O)[C@H](Cc2ccccc2)N(C)C(=O)[C@@H]2N[C@H](c3ccc(cc3)C(=O)NCCCC[C@@H](C(=O)NCC(N)=O)NC(=O)[C@H](CC(N)=O)NC(=O)[C@H](CC(N)=O)NC(=O)[C@H](CC(N)=O)NC1=O)C1(C(=O)N(C)C(=O)N(C)C1=O)[C@H]2c1ccccc1` [D7-major, [VII-FDINNNK ]G], the “fold improved binding affinity compared to disulfide-bridged peptide 24” value at Recombinant human SPSB2 (ratio of SPR KD) turned out to be 4 fold. Further, on Recombinant human SPSB2 (ratio of SPR KD, hSPSB2, versus 26), the “fold higher affinity compared to ortho ether aromatic unit analogue 26” value is reported as 46 fold.
Take `CC[C@H](C)[C@@H]1NC(=O)[C@H](CC(=O)O)NC(=O)[C@H](Cc2ccccc2)N(C)C(=O)[C@@H]2N[C@H](c3ccc(cc3)C(=O)NCCC[C@@H](C(=O)NCC(N)=O)NC(=O)[C@H](CC(N)=O)NC(=O)[C@H](CC(N)=O)NC(=O)[C@H](CC(N)=O)NC1=O)[C@@H]1C(=O)N(C)C(=O)[C@@H]12` [D8-major, [I-FDINNNOrn ]G]: at Recombinant human SPSB2 (SPR), the Kd was 282 ± 93 nM.
The same measure, in the same setting: the same measure for `CC[C@H](C)[C@@H]1NC(=O)[C@H](CC(=O)O)NC(=O)[C@H](Cc2ccccc2)N(C)C(=O)[C@@H]2N[C@H](c3ccc(cc3)C(=O)NCC[C@@H](C(=O)NCC(N)=O)NC(=O)[C@H](CC(N)=O)NC(=O)[C@H](CC(N)=O)NC(=O)[C@H](CC(N)=O)NC1=O)[C@@H]1C(=O)N(C)C(=O)[C@@H]12` [D9-major, [I-FDINNNDab ]G]: 66 ± 8 nM.
As to `CC[C@H](C)[C@@H]1NC(=O)[C@H](CC(=O)O)NC(=O)[C@H](Cc2ccccc2)N(C)C(=O)[C@@H]2N[C@H](c3ccc(cc3)C(=O)NC[C@@H](C(=O)NCC(N)=O)NC(=O)[C@H](CC(N)=O)NC(=O)[C@H](CC(N)=O)NC(=O)[C@H](CC(N)=O)NC1=O)[C@@H]1C(=O)N(C)C(=O)[C@@H]12` [D10-major, [I-FDINNNDap ]G], the dissociation constant (Kd) at Recombinant human SPSB2 (SPR) turned out to be 72 ± 16 nM.
Turning to `CC[C@H](C)[C@@H]1NC(=O)[C@H](CC(=O)O)NC(=O)[C@H](C(C)C)N(C)C(=O)[C@H]2N[C@@H](c3ccc(cc3)C(=O)NCCCC[C@@H](C(=O)NCC(N)=O)NC(=O)[C@H](CC(N)=O)NC(=O)[C@H](CC(N)=O)NC(=O)[C@H](CC(N)=O)NC1=O)[C@H]1C(=O)N(C)C(=O)[C@H]12` [D13-minor, [I-VDINNNK ]G], the “fold loss of binding for the minor diastereomer” value on Recombinant human SPSB2 stood at 5 fold.
Take `CC[C@H](C)[C@@H]1NC(=O)[C@H](CC(=O)O)NC(=O)[C@@H](Cc2ccccc2)N(C)C(=O)[C@@H]2N[C@H](c3ccc(cc3)C(=O)NCCCC[C@@H](C(=O)NCC(N)=O)NC(=O)[C@H](CC(N)=O)NC(=O)[C@H](CC(N)=O)NC(=O)[C@H](CC(N)=O)NC1=O)[C@@H]1C(=O)N(C)C(=O)[C@@H]12` [D15-major, [I-fDINNNK ]G]: the Kd at Recombinant human SPSB2 (SPR) is greater than 10000 nM.
On the same count and under the same terms, the result for `CC[C@H](C)[C@@H]1NC(=O)[C@H](CC(=O)O)NC(=O)[C@H](Cc2ccccc2)N(C)C(=O)[C@@H]2N[C@H](c3ccc(cc3)C(=O)NC[C@@H](C(=O)NCC(N)=O)NC(=O)[C@H](CC(N)=O)NC(=O)[C@H](CC(N)=O)NC(=O)[C@H](CC(N)=O)NC1=O)[C@@H]1C(=O)N(c3ccccc3)C(=O)[C@@H]12` [D17-major, [II-FDINNNDap ]G] reads 1080 ± 76 nM.
Consider `CC[C@H](C)[C@@H]1NC(=O)[C@H](CC(=O)O)NC(=O)[C@H](C(C)C)N(C)C(=O)[C@@H]2N[C@H](c3ccc(cc3)C(=O)NCCCC[C@@H](C(=O)NCC(N)=O)NC(=O)[C@H](CC(N)=O)NC(=O)[C@H](CC(N)=O)NC(=O)[C@H](CC(N)=O)NC1=O)[C@@H]1C(=O)N(c3ccccc3)C(=O)[C@@H]12` [D18-major, [II-VDINNNK ]G], for which the “fold improved binding affinity compared to disulfide-bridged peptide 24” value on Recombinant human SPSB2 (ratio of SPR KD) is reported as 7 fold. Further, the “fold improved binding affinity compared to cyclic peptide 25” value at Recombinant human SPSB2 (ratio of SPR KD, hSPSB2, versus 25) was 36 fold. Besides, at Recombinant human SPSB2 (ratio of SPR KD, hSPSB2, versus 27), the “fold better affinity than 27” value is reported as 40 fold.
Take `CC[C@H](C)[C@@H]1NC(=O)[C@H](CC(=O)O)NC(=O)[C@H](C(C)C)N(C)C(=O)[C@H]2N[C@@H](c3ccc(cc3)C(=O)NCCCC[C@@H](C(=O)NCC(N)=O)NC(=O)[C@H](CC(N)=O)NC(=O)[C@H](CC(N)=O)NC(=O)[C@H](CC(N)=O)NC1=O)[C@H]1C(=O)N(c3ccccc3)C(=O)[C@H]12` [D18-minor, [II-VDINNNK ]G]: the “fold loss of binding for the minor diastereomer” value at Recombinant human SPSB2 amounted to 63 fold.
On to “H-Gly-MePhe-Ala-Leu-Phe-Pro-Gly-Phe-Lys(4-formylbenzoyl)-Gly-resin”, for which the ring closure, conversion in series [1] (1% AcOH) stood at 91%; in series [1] (5% AcOH), 99%; in series [1] (Et3N/4A MS) it was 4%. Also, the ring closure, yield after HPLC came to 14% in series [2] (then 10/LiBr/Et3N) and 8% in series [2] (then 11/LiBr/Et3N).

The values are drawn from PMC7307906, “Macrocyclic Modalities Combining Peptide Epitopes and Natural Product Fragments” (Journal of the American Chemical Society, 2020).
